In patent US20070032409A1, “Bradykinin receptor antagonists and uses thereof” (VANDERBILT UNIVERSITY, priority 2005, published 2007):
Read-outs that look alike come from different tables or passages of the source.

Tests used:
[1] = test system: tissue-type plasminogen activator (t-PA) activity; assay: t-PA activity in arterial blood, chromogenic substrate kit
[2] = test system: adult patients undergoing elective cardiac surgery requiring CPB; assay: Safety: intra- and postoperative patient characteristics; format: in vivo, human; settings: HOE 140 group N=8
Experimental: Patients were transfused according to the following guidelines: packed red blood cells (PRBC) were transfused for a hematocrit less than 20% during CPB and for a hematocrit less than 25% after CPB, CPB time >120 min, or evidence of end-organ dysfunction. Platelets were transfused in 5-U sets for ongoing microvascular bleeding despite a normalized ACT. Fresh frozen plasma (FFP) was given for continued bleeding only after platelets were given. Transfusion requirements were recorded from the beginning of surgery until hospital discharge.

[3] = test system: hypotensive transgenic mice that harbor the B2 receptor; settings: mouse, in vivo; cited from earlier work
[4] = test system: adult patients undergoing elective cardiac surgery requiring CPB; assay: Hemodynamic response (MAP, heart rate) to protamine infusion, double-blind randomized study; format: in vivo, human
Experimental: The present inventors conducted a double-blind randomized study in sixteen adult male patients undergoing elective cardiac surgery requiring CPB and taking an angiotensin-converting enzyme inhibitor preoperatively. […] Mean arterial pressure (MAP) and tissue-type plasminogen activator (t-PA) activity were measured intraoperatively and before and after protamine.
Sixteen adult patients undergoing elective cardiac surgery requiring CPB and taking an ACE inhibitor preoperatively were studied. Patients were excluded if they had evidence of coagulopathy (INR greater than 1.7), underwent emergency surgery, underwent redo-CABG, had taken a glycoprotein IIb/IIIa antagonist within 2 days of surgery or had renal insufficiency (baseline creatinine>1.5 mg/dl). All patients provided written informed consent.

[5] = test system: pancreatitis-induced hypotension; settings: dog, in vivo; cited from earlier work
[6] = test system: bradykinin-induced hypotension; settings: correlated with antagonism of bradykinin-induced hypotension; cited from earlier work
t-PA antigen = t-PA antigen in arterial blood, 2-site ELISA
rats = settings: after i.v. bradykinin, endogenously-released kinins, induction of acute pancreatitis; cited from earlier work
[7] = test system: tissue factor and plasminogen activator inhibitor-1; settings: cited from earlier work
[8] = test system: vasodilation in response to exogenous bradykinin; settings: HOE 140 100 μg/kg; cited from earlier work
[9] = test system: plasminogen activator inhibitor -1 (PAI-1) antigen; assay: PAI-1 antigen in arterial blood, 2-site ELISA; settings: HOE 140 group N=8
[10] = cited from earlier work
[11] = biological target: angiotensin-converting enzyme (ACE) (Homo sapiens, UniProt P12821); settings: cited from earlier work
angiotensin-converting enzyme (ACE), sequence (P12821 30-1306, species assumed): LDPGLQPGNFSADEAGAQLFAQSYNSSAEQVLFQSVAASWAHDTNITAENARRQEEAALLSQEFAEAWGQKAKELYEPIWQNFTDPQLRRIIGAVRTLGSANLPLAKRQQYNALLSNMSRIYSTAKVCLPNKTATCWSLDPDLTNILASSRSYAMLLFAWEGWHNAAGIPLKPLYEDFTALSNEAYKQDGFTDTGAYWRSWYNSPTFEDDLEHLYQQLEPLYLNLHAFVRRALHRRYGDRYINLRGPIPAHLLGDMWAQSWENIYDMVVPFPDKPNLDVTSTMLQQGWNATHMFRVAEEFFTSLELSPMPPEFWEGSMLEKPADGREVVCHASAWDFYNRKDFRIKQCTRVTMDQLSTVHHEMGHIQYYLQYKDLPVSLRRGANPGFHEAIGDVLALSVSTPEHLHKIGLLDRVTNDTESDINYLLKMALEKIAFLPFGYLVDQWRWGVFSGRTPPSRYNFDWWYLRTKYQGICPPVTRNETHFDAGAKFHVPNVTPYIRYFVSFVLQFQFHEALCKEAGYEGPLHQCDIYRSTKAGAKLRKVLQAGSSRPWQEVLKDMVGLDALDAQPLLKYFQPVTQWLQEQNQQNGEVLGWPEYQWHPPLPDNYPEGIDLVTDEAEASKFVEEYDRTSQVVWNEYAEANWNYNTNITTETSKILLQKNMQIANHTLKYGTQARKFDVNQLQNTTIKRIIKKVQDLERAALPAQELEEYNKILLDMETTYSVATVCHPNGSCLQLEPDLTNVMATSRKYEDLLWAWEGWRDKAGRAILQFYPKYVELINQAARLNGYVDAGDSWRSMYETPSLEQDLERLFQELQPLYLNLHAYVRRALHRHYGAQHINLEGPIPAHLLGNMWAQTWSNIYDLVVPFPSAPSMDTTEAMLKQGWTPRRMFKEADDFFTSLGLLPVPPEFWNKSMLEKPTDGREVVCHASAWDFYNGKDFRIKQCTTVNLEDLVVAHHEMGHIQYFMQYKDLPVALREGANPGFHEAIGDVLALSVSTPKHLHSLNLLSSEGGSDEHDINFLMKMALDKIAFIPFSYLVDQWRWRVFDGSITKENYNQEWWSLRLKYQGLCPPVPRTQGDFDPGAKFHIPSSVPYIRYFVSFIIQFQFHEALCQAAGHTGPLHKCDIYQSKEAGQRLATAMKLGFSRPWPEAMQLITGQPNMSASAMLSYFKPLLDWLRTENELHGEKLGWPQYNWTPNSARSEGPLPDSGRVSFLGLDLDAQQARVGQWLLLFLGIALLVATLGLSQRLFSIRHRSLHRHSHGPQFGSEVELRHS

[12] = biological target: neutral endopeptidase 24.11 (Homo sapiens, UniProt P08473); settings: cited from earlier work
neutral endopeptidase 24.11, sequence (P08473 whole entry, species assumed): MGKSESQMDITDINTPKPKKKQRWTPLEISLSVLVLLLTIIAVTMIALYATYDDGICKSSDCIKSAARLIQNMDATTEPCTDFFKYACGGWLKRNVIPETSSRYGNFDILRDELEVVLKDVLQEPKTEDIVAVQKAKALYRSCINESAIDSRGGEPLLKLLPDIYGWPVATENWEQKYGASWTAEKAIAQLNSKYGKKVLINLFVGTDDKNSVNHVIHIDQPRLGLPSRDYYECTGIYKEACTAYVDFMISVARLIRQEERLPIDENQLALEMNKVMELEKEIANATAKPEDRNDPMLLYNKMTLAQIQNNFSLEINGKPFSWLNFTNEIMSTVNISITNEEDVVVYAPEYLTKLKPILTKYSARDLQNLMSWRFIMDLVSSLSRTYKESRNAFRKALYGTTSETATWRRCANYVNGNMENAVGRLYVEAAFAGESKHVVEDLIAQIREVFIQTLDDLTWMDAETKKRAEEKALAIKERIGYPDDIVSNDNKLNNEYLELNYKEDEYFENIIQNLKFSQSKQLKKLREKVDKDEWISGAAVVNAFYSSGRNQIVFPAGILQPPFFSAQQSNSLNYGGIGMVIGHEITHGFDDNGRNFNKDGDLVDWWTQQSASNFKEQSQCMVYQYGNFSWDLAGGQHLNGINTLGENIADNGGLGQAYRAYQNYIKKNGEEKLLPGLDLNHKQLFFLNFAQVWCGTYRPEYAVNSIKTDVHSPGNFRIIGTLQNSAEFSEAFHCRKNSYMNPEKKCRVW

bradykinin = assay: Arterial bradykinin concentrations before and after protamine, enzyme immunoassay; settings: all patients; for bradykinin concentration after protamine: P=0.006
aminopeptidase M = aminopeptidase M (Homo sapiens, UniProt P15144); settings: cited from earlier work
aminopeptidase M, sequence (P15144 whole entry, species assumed): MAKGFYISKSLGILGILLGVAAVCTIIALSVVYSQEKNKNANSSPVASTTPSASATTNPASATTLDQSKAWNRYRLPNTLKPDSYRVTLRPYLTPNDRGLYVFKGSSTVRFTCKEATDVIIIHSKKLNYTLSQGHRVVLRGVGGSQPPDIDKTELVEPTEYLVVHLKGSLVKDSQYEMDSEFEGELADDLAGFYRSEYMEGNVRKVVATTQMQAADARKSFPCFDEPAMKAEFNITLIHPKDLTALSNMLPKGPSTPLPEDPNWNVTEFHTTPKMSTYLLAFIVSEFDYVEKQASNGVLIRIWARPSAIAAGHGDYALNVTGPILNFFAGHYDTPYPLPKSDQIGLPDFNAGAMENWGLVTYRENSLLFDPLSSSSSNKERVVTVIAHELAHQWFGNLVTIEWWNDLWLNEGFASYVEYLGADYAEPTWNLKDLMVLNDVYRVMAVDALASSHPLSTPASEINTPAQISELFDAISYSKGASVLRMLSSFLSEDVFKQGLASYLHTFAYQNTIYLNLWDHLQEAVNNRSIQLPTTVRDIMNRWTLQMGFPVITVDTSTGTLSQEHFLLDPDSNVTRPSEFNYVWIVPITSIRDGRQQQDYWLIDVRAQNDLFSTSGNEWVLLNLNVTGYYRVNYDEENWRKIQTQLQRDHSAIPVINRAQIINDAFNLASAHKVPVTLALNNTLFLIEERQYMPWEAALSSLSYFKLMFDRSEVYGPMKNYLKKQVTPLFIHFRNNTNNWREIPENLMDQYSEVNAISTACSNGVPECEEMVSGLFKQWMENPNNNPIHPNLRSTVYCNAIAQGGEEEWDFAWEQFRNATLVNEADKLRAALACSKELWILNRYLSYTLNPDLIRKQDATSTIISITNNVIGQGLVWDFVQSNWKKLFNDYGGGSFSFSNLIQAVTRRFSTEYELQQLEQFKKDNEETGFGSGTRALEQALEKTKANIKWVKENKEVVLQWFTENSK

[13] = biological target: T1, carboxypeptidase N (kininase I) (Homo sapiens, UniProt P15169); settings: cited from earlier work
T1 sequence (P15169 21-458): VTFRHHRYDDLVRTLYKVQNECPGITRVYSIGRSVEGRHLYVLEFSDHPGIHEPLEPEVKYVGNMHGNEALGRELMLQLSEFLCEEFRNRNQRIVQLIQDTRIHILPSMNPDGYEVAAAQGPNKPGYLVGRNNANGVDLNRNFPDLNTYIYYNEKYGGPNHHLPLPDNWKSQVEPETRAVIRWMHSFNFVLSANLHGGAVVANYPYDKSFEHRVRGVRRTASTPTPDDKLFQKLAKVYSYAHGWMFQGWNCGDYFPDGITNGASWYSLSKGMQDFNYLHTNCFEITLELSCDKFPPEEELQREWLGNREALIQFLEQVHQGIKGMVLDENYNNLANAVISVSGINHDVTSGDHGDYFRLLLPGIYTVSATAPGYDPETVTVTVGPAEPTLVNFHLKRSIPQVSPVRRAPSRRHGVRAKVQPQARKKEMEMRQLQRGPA
T1 sequence (P22792 22-545 partner): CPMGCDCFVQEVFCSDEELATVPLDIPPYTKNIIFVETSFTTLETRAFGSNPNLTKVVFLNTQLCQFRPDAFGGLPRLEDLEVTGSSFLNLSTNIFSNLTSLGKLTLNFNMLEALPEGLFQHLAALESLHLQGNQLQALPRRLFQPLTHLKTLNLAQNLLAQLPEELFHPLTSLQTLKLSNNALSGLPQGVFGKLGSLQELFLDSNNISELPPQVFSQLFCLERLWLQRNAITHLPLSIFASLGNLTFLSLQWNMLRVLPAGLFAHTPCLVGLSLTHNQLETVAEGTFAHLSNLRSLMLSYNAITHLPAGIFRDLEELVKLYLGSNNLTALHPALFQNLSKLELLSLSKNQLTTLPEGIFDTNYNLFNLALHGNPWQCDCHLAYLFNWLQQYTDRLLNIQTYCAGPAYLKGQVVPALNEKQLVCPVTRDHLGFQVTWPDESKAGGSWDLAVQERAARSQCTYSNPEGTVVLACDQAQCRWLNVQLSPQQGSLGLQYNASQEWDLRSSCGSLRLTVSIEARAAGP

[14] = HOE 140 group N=8, mean±SD, in beats/min (unit assumed)
[15] = protamine 250 mg over 8 min after CPB

NC(N)=NCCC[C@@H](N)C(=O)N[C@@H](CCCN=C(N)N)C(=O)N1CCC[C@H]1C(=O)N1C[C@H](O)C[C@H]1C(=O)NCC(=O)N[C@@H](Cc1cccs1)C(=O)N[C@@H](CO)C(=O)N1Cc2ccccc2C[C@@H]1C(=O)N1[C@H](C(=O)N[C@@H](CCCN=C(N)N)C(=O)O)C[C@@H]2CCCC[C@@H]21 [HOE 140]
t-PA activity, intraoperative ([1]; 60 min after initiation of CPB, prior to receiving HOE 140, N=8): 3.59±0.88 IU/ml | t-PA activity, pre-protamine ([1]; after HOE 140 administration (100 μg/kg i.v.), before protamine, N=8): 1.67±1.18 IU/ml | t-PA activity, post-protamine ([1]; after protamine infusion in HOE 140 group, N=8): 0.77±0.74 IU/ml | t-PA activity, baseline ([1]; before initiation of CPB, prior to HOE 140, N=8): 0.42±0.29 IU/ml | change in t-PA activity ([1]; during HOE 140 administration, P=0.036 compared to saline): −1.92±0.94 IU/ml | CT 4 hours (chest tube output) [2]: 299.4 ± 233.0 mL | CT 24 hours (chest tube output) [2]: 759.6 ± 276.4 mL | Fresh frozen plasma transfusion [2]: 0.4 ± 1.1 Units | New onset atrial fibrillation [2]: 1(12.5) N(%) | PRBC transfusion [2]: 4.4 ± 4.0 Units | Platelet transfusion [2]: 275 ± 177 mL | Time to extubation >10 hours [2]: 2(25) N(%) | effect on blood pressure [3]: restoring blood pressure to normal levels | MAP during protamine infusion (nadir) ([4]; HOE 140 100 μg/kg i.v. before protamine, N=8, mean±SD): 69.6±3.4 mmHg | MAP at the start of the protamine infusion (pre-protamine) ([4]; HOE 140 100 μg/kg i.v. over one-half hour at end of CPB before protamine, N=8, mean±SD): 74.3±10.6 mmHg | heart rate after protamine [4, 14]: 81.0±14.0 | heart rate prior to protamine [4, 14]: 91.4±9.5 | effect on decrease in MAP during protamine infusion ([4]; P=0.022, ANOVA, versus saline): significantly blunted | reduction of mean arterial pressure by protamine ([4]; in the presence of HOE 140): about 6% | effect on pancreatitis-induced hypotension [5]: improvement of the hypotension in some animals | effect on release of bradykinin and beta-endorphin [5]: inhibited | effect on blood pressure [6]: increased blood pressure | t-PA antigen after protamine administration (t-PA antigen; HOE 140 group N=8): 22.7 ± 9.1 ng/mL | t-PA antigen after study drug infusion, before protamine (t-PA antigen; HOE 140 group N=8): 20.1 ± 6.1 ng/mL | t-PA antigen before study drug infusion (t-PA antigen; HOE 140 group, intraoperative, N=8): 23.4 ± 12.6 ng/mL | effect on decreases in blood pressure (rats): blocks | effect on bradykinin-increased expression of tissue factor and PAI-1 [7]: suppressed | effect on vasodilation in response to exogenous bradykinin [8]: prevents vasodilation | PAI-1 antigen after protamine administration [9]: 27.4 ± 15.5 ng/mL | PAI-1 antigen before protamine administration [9]: 20.2 ± 17.1 ng/mL | PAI-1 antigen on postoperative day 1 [9]: 32.4 ± 10.1 ng/mL

Protamine: highly basic polycationic polypeptide given at the end of CPB to reverse the anticoagulation effects of heparin (SEQ ID NO:1) (MARYRCCRSQSRSRYYRQRQRSRRRRRRSCQTRRRAMRCCRPRYRPRCRRH)
time to neutralization of heparin ([10]; after i.v. administration): ≤ 5 min | heparin activity neutralized per mg of protamine sulfate ([10]; heparin derived from intestinal mucosa): about 115 USP units | heparin activity neutralized per mg of protamine sulfate ([10]; heparin derived from lung tissue): approximately 90 USP units | inhibition of angiotensin-converting enzyme (ACE) [11]: does not inhibit | inhibition of neutral endopeptidase 24.11 [12]: does not inhibit | bradykinin concentration before protamine (bradykinin): 6.3±4.3 finol/ml | bradykinin concentration after protamine (bradykinin): 12.2±9.8 finol/ml | bradykinin concentration before protamine (bradykinin; [15]): 6.3 ± 4.3 fmol/mL | bradykinin concentration after protamine (bradykinin; [15]): 12.2 ± 9.8 fmol/mL | inhibition of aminopeptidase M (aminopeptidase M): does not inhibit | inhibition of carboxypeptidase N (kininase I) [13]: inhibits
